Target: Recombinant KAT6A/MOZ (488-778) protein (Homo sapiens (Human), UniProt Q92794)
Assay: KAT6A AlphaLISA Inhibition Screening Assay
Type: biochemical
Conditions: for inhibition at 1 µM: read-out: Average Kat6A % inhibition @ 1 μM; for inhibition at 1 µM / Average Kat6A % inhibition @ 1 μM: 1 μM test compound; for inhibition at 10 µM: read-out: Average Kat6A % inhibition @ 10 μM; for inhibition at 10 µM / Average Kat6A % inhibition @ 10 μM: 10 μM test compound
Procedure, shortened: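 25 nM KAT6A (488-778) pre-incubated 60 or 10 min with compound (10-point, 3-fold from 10 μM), then 400 nM acetyl-CoA and 200 nM biotin-H3(1-21) peptide added for 120 min at RT in pH 8.0 Tris buffer with 330 nM TSA. Acetylation read by AlphaLISA (anti-acetyl-lysine acceptor/streptavidin donor beads); % inhibition vs vehicle.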

Recombinant KAT6A/MOZ (488-778) protein, sequence (Q92794 488-778): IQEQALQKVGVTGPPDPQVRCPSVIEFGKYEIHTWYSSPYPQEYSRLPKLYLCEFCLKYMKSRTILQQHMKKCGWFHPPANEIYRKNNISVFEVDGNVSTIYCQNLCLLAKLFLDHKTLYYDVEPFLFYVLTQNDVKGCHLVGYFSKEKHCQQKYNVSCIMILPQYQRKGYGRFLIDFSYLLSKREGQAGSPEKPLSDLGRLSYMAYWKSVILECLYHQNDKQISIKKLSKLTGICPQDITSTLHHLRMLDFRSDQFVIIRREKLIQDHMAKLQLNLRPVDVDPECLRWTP

Row | Compound | inhibition at 1 µM | inhibition at 10 µM | Average Kat6A % inhibition @ 1 μM | Average Kat6A % inhibition @ 10 μM
1 | C=C(F)C(=O)NCc1cnn(Cc2cc(OC)c3c(NS(=O)(=O)c4cc(CC)ccc4OCCNC(=O)OC)noc3c2)c1 [Syn. Ex. 79, methyl (2-(4-ethyl-2-(N-(6-((4-((2-fluoroacrylamido)methyl)-1H-pyrazol-1-yl)methyl)-4-methoxybenzo[d]isoxazol-3-yl)sulfamoyl)phenoxy)ethyl)carbamate] | 99% | 100% | – | –
2 | C=C(F)C(=O)NCc1cnn(Cc2cc(OC)c3c(NS(=O)(=O)c4cc(CC)ccc4OCc4nc[nH]n4)noc3c2)c1 [Syn. Ex. 80, N-((1-((3-((2-((1H-1,2,4-triazol-3-yl)methoxy)-5-ethylphenyl)sulfonamido)-4-methoxybenzo[d]isoxazol-6-yl)methyl)-1H-pyrazol-4-yl)methyl)-2-fluoroacrylamide] | 100% | 100% | – | –
3 | CCc1ccc(OCCNC(C)=O)c(S(=O)(=O)Nc2noc3cc(Cn4cc(CNC(=O)OC)cn4)cc(OC)c23)c1 [Syn. Ex. 81, methyl ((1-((3-((2-(2-acetamidoethoxy)-5-ethylphenyl)sulfonamido)-4-methoxybenzo[d]isoxazol-6-yl)methyl)-1H-pyrazol-4-yl)methyl)carbamate] | 91% | 99% | – | –
4 | C=C(F)C(=O)NCc1cnn(Cc2cc(OC)c3c(NS(=O)(=O)c4cc(CC)ccc4OCCNC(C)=O)noc3c2)c1 [Syn. Ex. 82, N-((1-((3-((2-(2-acetamidoethoxy)-5-ethylphenyl)sulfonamido)-4-methoxybenzo[d]isoxazol-6-yl)methyl)-1H-pyrazol-4-yl)methyl)-2-fluoroacrylamide] | 94% | 99% | – | –
5 | CCc1ccc(OCCC#N)c(S(=O)(=O)Nc2noc3cc(Cn4cc(CNC(=O)OC)cn4)cc(OC)c23)c1 [Syn. Ex. 83, methyl ((1-((3-((2-(2-cyanoethoxy)-5-ethylphenyl)sulfonamido)-4-methoxybenzo[d]isoxazol-6-yl)methyl)-1H-pyrazol-4-yl)methyl)carbamate] | 98% | 99% | – | –
6 | C=C(F)C(=O)NCc1cnn(Cc2cc(OC)c3c(NS(=O)(=O)c4cc(CC)ccc4OCCC#N)noc3c2)c1 [Syn. Ex. 84, N-((1-((3-((2-(2-cyanoethoxy)-5-ethylphenyl)sulfonamido)-4-methoxybenzo[d]isoxazol-6-yl)methyl)-1H-pyrazol-4-yl)methyl)-2-fluoroacrylamide] | 100% | 100% | – | –
7 | C#CC(=O)NCc1cnn(Cc2cc(OC)c3c(NS(=O)(=O)c4c(OC)ccnc4OC)noc3c2)c1 [Syn. Ex. 85, N-((1-((3-((2,4-dimethoxypyridine)-3-sulfonamido)-4-methoxybenzo[d]isoxazol-6-yl)methyl)-1H-pyrazol-4-yl)methyl)propiolamide] | – | – | 91% | 95%
8 | COC(=O)NCc1cnn(Cc2cc(OC)c3c(NS(=O)(=O)c4c(OC)ccnc4OC)noc3c2)c1 [Syn. Ex. 86, methyl ((1-((3-((2,4-dimethoxypyridine)-3-sulfonamido)-4-methoxybenzo[d]isoxazol-6-yl)methyl)-1H-pyrazol-4-yl)methyl)carbamate] | – | – | 86% | 100%
9 | C=C(F)C(=O)NCc1cnn(Cc2cc(OC)c3c(NS(=O)(=O)c4c(OC)ccnc4OC)noc3c2)c1 [Syn. Ex. 87, N-((1-((3-((2,4-dimethoxypyridine)-3-sulfonamido)-4-methoxybenzo[d]isoxazol-6-yl)methyl)-1H-pyrazol-4-yl)methyl)-2-fluoroacrylamide] | – | – | 95% | 100%
10 | COC(=O)NCc1cnn(Cc2cc(OC)c3c(NS(=O)(=O)c4cc(C)ccc4OC)noc3c2)c1 [Syn. Ex. 88, methyl ((1-((4-methoxy-3-((2-methoxy-5-methylphenyl)sulfonamido)benzo[d]isoxazol-6-yl)methyl)-1H-pyrazol-4-yl)methyl)carbamate] | 99% | 98% | – | –

Reference: patent publication US20250122182A1 (Isosterix, Inc., priority 2023, published 2025)
